Key:
ALS [1] = settings: injected intravenously, small subset of people with ALS, phase 3; cited from earlier work
[2] = test system: spinal cord/muscle neuromuscular junctions; test: Co-culture of human myoblasts and rat spinal cord explants injured with glutamate, neuromuscular junctions (Example 4); type: cell-based, human muscle cell line; settings: 300 nM, glutamate 60 μM 20 min, 48 h
[3] = test system: rat primary motor neurons; test: Rat primary motor neurons injured with glutamate, 24 h pre-treatment + 24 h post-injury treatment (Example 2); type: cell-based
Method: (§1) Rat motor neurons (MN) were cultured as previously described by Martinou et al., Neuron. 1992, April; 8(4), 737-44 and Wang et al. Hum. Mol. Genet., 2013 Dec. 1; 22(23), 4706-19. Pregnant female rats of 14 days gestation (Rats Wistar; Janvier Labs France) were killed using a deep anesthesia with CO2 followed by cervical dislocation. Then, fetuses were removed from the uterus and immediately placed in ice-cold L15 Leibovitz medium with a 2% penicillin (10,000 U/mL) and streptomycin (10 mg/mL) solution (PS) and 1% bovine serum albumin (BSA). Spinal cords were treated for 20 min at 37° C. with a trypsin-Ethylenediaminetetraacetic acid (EDTA) solution at a final concentration of 0.05% trypsin and 0.02% EDTA. The dissociation was stopped by the addition of Dulbecco's modified Eagle's medium (DMEM) with 4.5 g/liter of glucose, containing DNAse I grade II (final concentration 0.5 mg/mL) and 10% fetal calf serum (FCS). Cells were mechanically dissociated by three forced passages through the tip of a […]. Cells were then centrifuged at 180×g for 10 min at +4° C. on a layer of BSA (3.5%) in L15 medium. The supernatant was discarded, and the pellet was resuspended in a defined culture medium consisting of Neurobasal medium with a 2% solution of B27 supplement, 2 mmol/liter of L-glutamine, 2% of PS solution, and 10 ng/mL of brain-derived neurotrophic factor (BDNF). Viable cells were counted in a Neubauer cytometer, using the trypan blue exclusion test. The cells were seeded at a density of 20,000 per well in 96-well plates (immunostaining) precoated with poly-L-lysine and cultured at 37° C. in an air (95%)-CO2 (5%) incubator. The medium was changed every 2 days. The motor neurons were injured with glutamate after 13 days of culture.
(§2) After 14 or 15 days of culture (48 h after the glutamate injury), the cell culture supernatant was collected and the spinal cord MNs were fixed by a cold solution of ethanol (95%) and acetic acid (5%) for 5 min at −20° C. After permeabilization with 0.1% of saponin, cells were blocked for 2 h with PBS containing 1% fetal calf serum. Then, cells were incubated with: • a) mouse monoclonal antibody anti-microtubule associated protein 2 (MAP-2) at dilution of 1/400 in PBS containing 1% fetal calf serum and 0.1% of saponin. This antibody binds specifically MAP-2 present in cell bodies and neurites of all MNs. […] Nuclei of neurons were labeled by a fluorescent marker (Hoechst solution). • b) Rabbit polyclonal antibody anti-TDP43 at dilution of 1/100 in PBS containing 1% fetal calf serum and 0.1% of saponin. Cytoplasmic localization of TDP43 was investigated.
All images were taken under the same conditions (exposition time, gain and laser intensity). Analysis of different endpoints, were automatically performed using Custom Module Editor (Molecular Devices). Motoneurons (MAP-2) were distinguished from interneurons (staining MAP-2) using the following morphological criteria: a cell body diameter […] and the presence of a minimum of three neuritic processes (Ferraiuolo et al. Brain 2011: 134; 2627-2641).
(§3) The endpoints were: • survival of MN (number of MN) • total neurite outgrowth of MN (expressed in μm) • TDP43 (extranuclear, eTDP43) in MN (expressed as area eTDP43-μm^2/number of MN) Statistical Analysis
The culture was carried out as described in example 1.
On day 12 of culture, primary motor neurons were treated with the sulphate salt for 24 hours. […]

[4] = test system: primary culture of rat spinal motor neurons; test: Rat primary spinal motor neurons injured with glutamate, 48 h co-incubation (Example 1); type: cell-based; settings: 48 h incubation
Method: as §1
On day 13 of culture, glutamate was added to a final concentration of 5 μM diluted in control medium in presence of the sulphate salt for 20 min. After 20 min, glutamate was washed and fresh culture medium with the sulphate salt was added for 48 hours.
as §2
All images were taken under the same conditions (exposition time, gain and laser intensity). Analysis of different endpoints, were automatically performed using Custom Module Editor (Molecular Devices). […]
as §3
All values are expressed as mean+/−SEM. […]

[5] = test system: SOD1^G93A Tg rat spinal cord motor neurons; test: Primary culture of SOD1G93A Tg rat spinal cord motor neurons injured with glutamate (Example 3); type: cell-based
Method: The day of the dissection (from pregnant females at 14 days of gestation), a piece of each embryo head (˜3 mm^3) was placed in a 2 mL tube free DNase with a new scalpel. The DNA was extracted with the SYBR Green Extract-N-Amp tissue PCR kit (Sigma Aldrich). Briefly, 120 μL of extraction solution was put on each piece of embryo heads. Then, they were incubated for 10 min at room temperature. At the end of this incubation period, the heads were incubated for 5 min at 95° C. Immediately after this last incubation, 100 μL of neutralizing solution was added; each DNA extract was diluted at 1/40 and stored at +4° C. until use. SOD1^G93A gene was determined using genomic fragment with human SOD1 primers (5′-[…]-3′; 5′-[…]-3′). The SOD1 primers were diluted at 3 μM in sterile ultrapure water. Briefly, a mix for PCR was prepared with ultrapure water (4 μL per sample), primer at 3 μM (2 μL per sample) and Master Mix (10 μL per sample). In a PCR 96 wells plate, 16 μL of PCR mix was added in each well. 4 μL of each diluted DNA was added according to a plan deposit.
Rat spinal cord (SC) motor neurons were cultured as described by Martinou et al., Neuron. 1992, April; 8(4), 737-44 and Wang et al. Hum. Mol. Genet., 2013 Dec. 1; 22(23), 4706-19. Pregnant female rats of 14 days of gestation were killed by cervical dislocation. Fetuses were collected and immediately placed in ice-cold L15 Leibovitz medium with a 2% penicillin (10,000 U/mL) and streptomycin (10 mg/mL) solution (PS) and 1% bovine serum albumin (BSA). Each fetus was dispatched on numerating petri dish (35 mm of diameter). Tail of fetuses were cut, placed on 1.5 ml tube free DNAase; the DNA was extracted with the Extract-N-Amp Tissue Kit.
The genotyping of SOD tg fetuses was performed with the kit Fast SYBR Green Master Mix. This genotyping was made during the dissection of spinal cord, thus at the end of the dissection culture of SOD Tg spinal cord and WT spinal cord was done. Spinal cords were removed and placed in ice-cold medium of Leibovitz (L15). SC were treated for 20 min at 37° C. with a trypsin-EDTA solution at a final concentration of 0.05% trypsin and 0.02% EDTA. The dissociation was stopped by addition of Dulbecco's modified Eagle's medium (DMEM) with 4.5 g/liter of glucose, containing DNAse I grade II (final concentration 0.5 mg/mL) and 10% fetal calf serum (FCS). Cells were mechanically dissociated by three forced passages through the tip of a 10-ml pipette. Cells were then centrifuged at 180×g for 10 min at +4° C. on a layer of BSA (3.5%) in L15 medium. […] Viable cells were counted in a Neubauer cytometer, using the trypan blue exclusion test. […]

ALS [6] = settings: oral drug, ALS patients; cited from earlier work
[7] = dose dependence, 5 μM glutamate 20 min, 48 h

CC1=NN(c2ccccc2)C(=O)C1 [Edavarone]
Decline of ALS Functional Rating Scale-Revised score compared with placebo (ALS [1]): significantly smaller decline

CC(C)CN(CCCN1CCN(CCCNc2nc3ccccc3[nH]2)CC1)CC(C)C.O=S(=O)(O)O.O=S(=O)(O)O [N-(3-(4-(3-(diisobutylamino)propyl)piperazin-1-yl)propyl)-1H-benzo[d]imidazol-2-amine di-sulphate]
Neuroprotective effect on neuromuscular junctions and neurite network against glutamatergic stress [2]: successfully protected the neuromuscular junctions and the neurite network
Number of NMJs [2]: increased
Total area of NMJs [2]: increased
Total neurite network [2]: increased
Effect on motor neuron survival compared to the glutamate condition ([3]; 3 nM to 30 nM, 24 h pre-incubation + 24 h post-injury): positive and significant effect on survival
Extranuclear TDP-43 (abnormal distribution) ([3]; 10 nM to 30 nM, glutamate alone eTDP-43 signal 128% of control): able to fully prevent the abnormal distribution of TDP-43
Neurite network integrity (mean length, percentage of control) ([3]; 30 nM (maximal effect), 24 h pre-incubation + 24 h post-injury): 91%
Motor neuron survival (mean survival, percentage of control) ([3]; 30 nM (maximal effect), 24 h pre-incubation + 24 h post-injury, glutamate alone 65%): 87%
Effect on neurite network (protection from glutamate damage) ([3]; all investigated doses, 24 h pre-incubation + 24 h post-injury): able to protect the neurite network from glutamate damage
Effect on motor neuron survival compared to the glutamate condition ([4]; 10 nM to 30 nM, 5 μM glutamate 20 min): positive and significant effect on survival
Neurite network integrity (mean length, percentage of control) ([4]; 30 nM (maximal effect), 5 μM glutamate 20 min): 80%
Motor neuron survival (mean survival, percentage of control) ([4]; 30 nM (maximal effect), 5 μM glutamate 20 min, glutamate alone 55%): 82%
Extranuclear TDP-43 (cytoplasmic accumulation) ([4]; 10 and 30 nM, 5 μM glutamate 20 min): able to prevent the accumulation of TDP-43 in the cytoplasm
Effect on neurite network after glutamate injury ([4]; all investigated doses): able to improve the neurite network after glutamate injury
Protective effects compared with Riluzole and Edaravone ([5]; 300 nM versus Riluzole 1 μM and Edaravone 5 μM): greater than those of Riluzole or Edaravone
Neuroprotection (number of MNs, neurite network, TDP-43 distribution) ([5]; all investigated doses, 5 μM glutamate 20 min, 48 h): neuroprotective
Protective effect on neuronal survival [5, 7]: dose-dependent
Protective effect on the distribution of TDP-43 [5, 7]: dose-dependent

Nc1nc2ccc(OC(F)(F)F)cc2s1 [Riluzole]
Effect on motor and respiratory functions (ALS [6]): no effect
